“And” between values parts separate entries of the source, which are not always exact repeats. Equal values may be shown once. Toxic doses and inconclusive results are not listed. Cut-off read from the data, not from the text of the source: active = T/C of 150% or more; inactive = T/C below 125%.
Test system: L1210 leukemia ip in BDF1 mice, survival T/C
Assay: NCI In Vivo Anticancer Drug Screen. Data for tumor model L1210 Leukemia (intraperitoneal) in B6D2F1 (BDF1) mice
Details: endpoint: mean survival time, higher = longer survival
In short: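 Value reflects the ratio of survival in compound-treated mice to survival in vehicle-treated controls, with both groups carrying the same transplanted tumor.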

[1] = dose: 400.0 mg/kg/injection, schedule: Q04DX002 (ip), vehicle: saline with Tween-80
[2] = dose: 100.0 mg/kg/injection, schedule: Q04DX003 (ip), vehicle: saline with Tween-80
[3] = dose: 200.0 mg/kg/injection, schedule: Q04DX003 (ip), vehicle: saline with Tween-80
[4] = dose: 400.0 mg/kg/injection, schedule: Q04DX003 (ip), vehicle: saline with Tween-80
[5] = dose: 100.0 mg/kg/injection, schedule: Q04DX002 (ip), vehicle: Klucel (hydroxypropylcellulose) (HPC)
[6] = dose: 200.0 mg/kg/injection, schedule: Q04DX002 (ip), vehicle: Klucel (hydroxypropylcellulose) (HPC)
[7] = dose: 400.0 mg/kg/injection, schedule: Q04DX002 (ip), vehicle: Klucel (hydroxypropylcellulose) (HPC)
[8] = dose: 100.0 mg/kg/injection, schedule: Q01DX009 (ip), vehicle: saline with Tween-80
[9] = dose: 200.0 mg/kg/injection, schedule: Q01DX009 (ip), vehicle: saline with Tween-80
[10] = dose: 400.0 mg/kg/injection, schedule: Q01DX009 (ip), vehicle: saline with Tween-80
[11] = dose: 100.0 mg/kg/injection, schedule: Q01DX001 (ip), vehicle: saline
[12] = dose: 200.0 mg/kg/injection, schedule: Q01DX001 (ip), vehicle: saline
[13] = dose: 400.0 mg/kg/injection, schedule: Q01DX001 (ip), vehicle: saline
[14] = dose: 100.0 mg/kg/injection, schedule: Q01DX001 (ip), vehicle: carboxymethylcellulose (CMC)
[15] = dose: 200.0 mg/kg/injection, schedule: Q01DX001 (ip), vehicle: carboxymethylcellulose (CMC)
[16] = dose: 400.0 mg/kg/injection, schedule: Q01DX001 (ip), vehicle: carboxymethylcellulose (CMC)
[17] = dose: 100.0 mg/kg/injection, schedule: Q01DX001 (ip), vehicle: saline with Tween-80
[18] = dose: 200.0 mg/kg/injection, schedule: Q01DX001 (ip), vehicle: saline with Tween-80
[19] = dose: 400.0 mg/kg/injection, schedule: Q01DX001 (ip), vehicle: saline with Tween-80
[20] = dose: 100.0 mg/kg/injection, schedule: Q04DX003 (ip), vehicle: Klucel (hydroxypropylcellulose) (HPC)
[21] = dose: 200.0 mg/kg/injection, schedule: Q04DX003 (ip), vehicle: Klucel (hydroxypropylcellulose) (HPC)

Measured: T/C

O=C1C=C(Nc2cccc(Cl)c2)C(=O)N1c1cccc(Cl)c1
inactive: dose: 75.0 mg/kg/injection, schedule: Q04DX003 (ip), vehicle: other 106 % of control | dose: 150.0 mg/kg/injection, schedule: Q04DX003 (ip), vehicle: other 91 % of control | dose: 300.0 mg/kg/injection, schedule: Q04DX003 (ip), vehicle: other 90 % of control

CCCCC(CC)CN(CCOc1nc(OCCN(CC(CC)CCCC)CC(CC)CCCC)nc(OCCN(CC(CC)CCCC)CC(CC)CCCC)n1)CC(CC)CCCC (stereo unspecified)
inactive: dose: 25.6 mg/kg/injection, schedule: Q04DX002 (ip), vehicle: saline with Tween-80 102 % of control | dose: 64.0 mg/kg/injection, schedule: Q04DX002 (ip), vehicle: saline with Tween-80 94 % of control | dose: 160.0 mg/kg/injection, schedule: Q04DX002 (ip), vehicle: saline with Tween-80 97 % of control | [1] 94 % of control

CN(C)C(=O)Nc1cccc(OC(=O)NC2CC2)c1
inactive: [2] 96 % of control | [3] 95 % of control | [4] 90 % of control

NC(=O)Nc1nc(-c2ccccc2)cc(-c2ccccc2O)n1
inactive: [5] 91 % of control | [6] 91 % of control | [7] 102 % of control

COc1ccc(OC)c(NC(=O)NNC(=O)CNC(=O)Nc2cccc([N+](=O)[O-])c2)c1
inactive: [8] 89 % of control | [9] 91 % of control | [10] 91 % of control

O=C(O)CCSC(c1ccccc1)(c1ccccc1)c1ccccc1
inactive: dose: 25.0 mg/kg/injection, schedule: Q01DX009 (ip), vehicle: saline 102 % of control | dose: 50.0 mg/kg/injection, schedule: Q01DX009 (ip), vehicle: saline 103 % of control | dose: 100.0 mg/kg/injection, schedule: Q01DX009 (ip), vehicle: saline 96 % of control | dose: 200.0 mg/kg/injection, schedule: Q01DX009 (ip), vehicle: saline 100 % of control | dose: 300.0 mg/kg/injection, schedule: Q01DX009 (ip), vehicle: saline 96 % of control | dose: 400.0 mg/kg/injection, schedule: Q01DX009 (ip), vehicle: saline 96 % of control

Oc1cccc(-c2nnc(-c3cccc(O)c3)nn2)c1
inactive: [11] 101 % of control | [12] 96 % of control | [13] 102 % of control

O=C(Nc1ccccc1C(F)(F)F)c1ccc(C(=O)Nc2ccccc2C(F)(F)F)cc1
inactive: [8] 90 % of control | [2] 90 % of control | [9] 87 % of control | [3] 90 % of control | [10] 100 % of control | [4] 91 % of control

COC(=O)C[P+](c1ccccc1)(c1ccccc1)c1ccccc1
inactive: dose: 15.0 mg/kg/injection, schedule: Q01DX001 (ip), vehicle: saline 93 % of control | dose: 30.0 mg/kg/injection, schedule: Q01DX001 (ip), vehicle: saline 89 % of control | dose: 60.0 mg/kg/injection, schedule: Q01DX001 (ip), vehicle: saline 86 % of control

CCCC[As](=O)(O)CC(C)C
inactive: dose: 6.25 mg/kg/injection, schedule: Q01DX009 (ip), vehicle: saline 93 % of control | dose: 12.5 mg/kg/injection, schedule: Q01DX009 (ip), vehicle: saline 101 % of control

COc1cccc2cc[nH]c12
inactive: dose: 50.0 mg/kg/injection, schedule: Q01DX001 (ip), vehicle: carboxymethylcellulose (CMC) 105 % of control | [14] 100 % of control | [15] 112 % of control | [16] 100 % of control

Nc1ncnc(N)c1NC(=O)c1ccc(OCCc2ccccc2)c(Cl)c1
inactive: [17] 106 % of control | [18] 96 % of control | [19] 102 % of control

CCOC(=O)CNC(=O)Oc1c(Cl)cccc1Cl
inactive: dose: 25.0 mg/kg/injection, schedule: Q01DX009 (ip), vehicle: Klucel (hydroxypropylcellulose) (HPC) 100 % of control | dose: 50.0 mg/kg/injection, schedule: Q01DX009 (ip), vehicle: Klucel (hydroxypropylcellulose) (HPC) 88 % of control | dose: 100.0 mg/kg/injection, schedule: Q01DX009 (ip), vehicle: Klucel (hydroxypropylcellulose) (HPC) 89 % of control

O=C1C=Cc2cccc3cccc1c23
inactive: [20] 98 % of control | [21] 112 % of control

O=C(CCl)c1ccc([N+](=O)[O-])o1
inactive: dose: 1.56 mg/kg/injection, schedule: Q01DX001 (ip), vehicle: Klucel (hydroxypropylcellulose) (HPC) 98 % of control | dose: 3.12 mg/kg/injection, schedule: Q01DX001 (ip), vehicle: Klucel (hydroxypropylcellulose) (HPC) 95 % of control | dose: 6.25 mg/kg/injection, schedule: Q01DX001 (ip), vehicle: Klucel (hydroxypropylcellulose) (HPC) 96 % of control

CC(C)c1cc(CN(C)C)cc(C(C)C)c1O
inactive: [20] 95 % of control | [21] 102 % of control

CC(C)=CCOc1ccc(C(=O)O)cc1
inactive: [11] 100 % of control | [12] 116 % of control | [13] 107 % of control

O=c1[nH]cnc2sc3c(c12)CCCC3
inactive: dose: 100.0 mg/kg/injection, schedule: Q01DX009 (ip), vehicle: saline sonified 94 % of control | dose: 100.0 mg/kg/injection, schedule: Q04DX003 (ip), vehicle: saline sonified 92 % of control | dose: 200.0 mg/kg/injection, schedule: Q01DX009 (ip), vehicle: saline sonified 116 % of control | dose: 200.0 mg/kg/injection, schedule: Q04DX003 (ip), vehicle: saline sonified 98 % of control | dose: 400.0 mg/kg/injection, schedule: Q01DX009 (ip), vehicle: saline sonified 100 % of control | dose: 400.0 mg/kg/injection, schedule: Q04DX003 (ip), vehicle: saline sonified 101 % of control

COc1ccc(OC)c(NC(=S)NC(=O)c2ccc(Cl)cc2Cl)c1
inactive: [17] 89 % of control | [8] 100 % of control and 102 % of control | dose: 100.0 mg/kg/injection, schedule: Q04DX002 (ip), vehicle: saline with Tween-80 93 % of control and 100 % of control | [2] 105 % of control | [18] 86 % of control | [9] 96 % of control and 99 % of control | dose: 200.0 mg/kg/injection, schedule: Q04DX002 (ip), vehicle: saline with Tween-80 106 % of control and 107 % of control | [3] 92 % of control | [19] 96 % of control | [10] 89 % of control | [1] 93 % of control | [4] 95 % of control

O=C(Cl)c1ccc(OC(Cl)(Cl)Cl)cc1
inactive: [20] 109 % of control | dose: 200.0 mg/kg/injection, schedule: Q01DX009 (ip), vehicle: Klucel (hydroxypropylcellulose) (HPC) 100 % of control | [21] 92 % of control | dose: 400.0 mg/kg/injection, schedule: Q01DX009 (ip), vehicle: Klucel (hydroxypropylcellulose) (HPC) 95 % of control | dose: 400.0 mg/kg/injection, schedule: Q04DX003 (ip), vehicle: Klucel (hydroxypropylcellulose) (HPC) 94 % of control

O=[N+]([O-])CC1c2ccccc2Nc2ccccc21
inactive: dose: 50.0 mg/kg/injection, schedule: Q01DX009 (ip), vehicle: saline with Tween-80 93 % of control | [8] 107 % of control | [9] 100 % of control

CC(=O)CC(Br)CBr (stereo unspecified)
inactive: dose: 25.0 mg/kg/injection, schedule: Q04DX003 (ip), vehicle: saline with Tween-80 91 % of control | dose: 50.0 mg/kg/injection, schedule: Q04DX003 (ip), vehicle: saline with Tween-80 98 % of control | [2] 100 % of control

Cc1ccc(C(CO)(CO)OC(CO)(CO)c2ccc(C)c(C)c2)cc1C
inactive: dose: 50.0 mg/kg/injection, schedule: Q01DX001 (ip), vehicle: saline 105 % of control | [11] 97 % of control | [12] 105 % of control | [13] 105 % of control

C=CCc1cc2c(cc(OC)c1=O)C(NC(C)=O)CCc1cc(OC)c(OC)c(OC)c1-2 (stereo unspecified)
inactive: [14] 106 % of control | [15] 109 % of control | [16] 114 % of control

COC1OC(COC(=O)c2ccccc2)C(OC(=O)N(C)c2ccccc2)C1OC (stereo unspecified)
inactive: [2] 98 % of control | [3] 92 % of control | [4] 95 % of control

CCCC1N(C)CCCN1C
inactive: [2] 114 % of control | [3] 102 % of control

O=C(COc1ccc(F)cc1Cl)OCCOCCO
inactive: [5] 106 % of control | [6] 95 % of control | [7] 106 % of control

O=C(Nc1cccc(Cl)c1)Nc1cc(Cl)ccc1Cl
inactive: [8] 92 % of control | [2] 96 % of control | [9] 90 % of control | [3] 91 % of control | [10] 94 % of control | [4] 97 % of control

Source: PubChem BioAssay AID248 (DTP/NCI, 2004)
